Measured values reported in patent publication US20120059021A1, “COMPOSITIONS AND METHODS FOR TREATING CANCER AND METHODS FOR PREDICTING A RESPONSE TO SUCH TREATMENTS” (UNIVERSITY OF WASHINGTON, priority 2008, published 2012).

How the values were obtained:
[1] = system: GSK3β; assay: Immunoblot for activating auto-phosphorylation of GSK3β in A375 cells; format: cell-based, human
[2] = system: COLO829; assay: qPCR of endogenous Wnt target gene AXIN2, COLO829; format: cell-based, human; conditions: WNT3A CM, 2 μM PLX4720, 24 hours
From the text: (§1) RNA purification and qRT-PCR analysis. RNA was purified using the RNeasy kit following the manufacturer's protocol (Qiagen; Maryland, Md.). cDNA was synthesized using RevertAid™ M-MuLV Reverse Transcriptase (Fermentas; Ontario, CAN). Light Cycler FastStart DNA Master SYBR Green1 (Roche; Mannheim, Germany) was used for real-time PCR as previously described (53). Quantitative PCR results presented in the manuscript are averages of a minimum of three biologic replicates.

[3] = system: MEL624; assay: Flow cytometry for active (cleaved) caspase-3, MEL624; format: cell-based, human; conditions: WNT3A, 2 μM PLX4720, 24 hours
Description: (§2) Flow cytometry for Active Caspase-3. Cells were seeded in a 6-well dish at a density to achieve 90-100% confluence at harvest. 24 hours after seeding, cells were treated with the indicated conditions for the indicated amount of time. At the time of collection, supernatants were collected and pooled with trypsinized cells. Cells were fixed with 4% paraformaldehyde and permeabilized according to vendor's protocol for Cleaved Caspase-3 (Asp175) Antibody (AlexaFluor 488 Conjugate) (catalog #9669) (Cell Signaling, Beverly Mass.). The antibody was used at a final dilution of 1:100. Flow was performed on a BD FACSCanto H, and data analysed with FlowJo 8.8.6 (Tree Star) software. Experiments were performed with biological triplicates and data are representative of at least three independent experiments. For experiments involving siRNAs, cells were reverse transfected with 20 nM siRNA in 6-well dishes in triplicate with RNAiMax according to manufacturer's protocol. 48 hours following transfection, cells were treated with the indicated conditions for 24 hours and then harvested for analysis. Cells were harvested, stained, and analyzed as described above.

[4] = system: A2058; assay: Flow cytometry for active (cleaved) caspase-3, A2058; format: cell-based, human; conditions: 2 uM PLX4720, 24 hours, in % (unit assumed)
Description: as §2, with “experiments.” for “experiments. For experiments involving siRNAs, cells were reverse transfected with 20 nM siRNA in 6-well dishes in triplicate with RNAiMax according to manufacturer's protocol. 48 hours following transfection, cells were treated with the indicated conditions for 24 hours and then harvested for analysis. Cells were harvested, stained, and analyzed as described above.”
(§3) For experiments involving siRNAs, cells were reverse transfected with 20 nM siRNA in 6-well dishes in triplicate with RNAiMax according to manufacturer's protocol. 48 hours following transfection, cells were treated with the indicated conditions for 24 hours and then harvested for analysis. Cells were harvested, stained, and analyzed as described above.

[5] = system: SKMEL5; assay: Flow cytometry for active (cleaved) caspase-3, SKMEL5; format: cell-based, human; conditions: 2 uM PLX4720, 24 hours, in % (unit assumed)
Description: as §2, with “experiments.” for “experiments. For experiments involving siRNAs, cells were reverse transfected with 20 nM siRNA in 6-well dishes in triplicate with RNAiMax according to manufacturer's protocol. 48 hours following transfection, cells were treated with the indicated conditions for 24 hours and then harvested for analysis. Cells were harvested, stained, and analyzed as described above.”
as §3

[6] = system: A375 melanoma cells; assay: Isobologram analysis of cell viability (CellTiter-Glo); format: cell-based, human
Description: Isobologram Analysis of Cell Viability. A375 melanoma cells were seeded in 96-well plates at a concentration of 8,000 cells/well in 100 μl of growth media. 24 hours after plating, cells were treated with all combinations of 2-fold dilutions of WNT3A CM ranging from 20% to 0% and 2-fold dilutions of PLX4720 ranging from 5 μM-0 μM for 48 hours. 10 uL of CellTiter-Glo (Promega Madison, Wis.) was added to each well and total luminescence was measured on an Envision multilabel plate reader (Perkin Elmer Waltham, Mass.). Each condition within an experiment was assayed in triplicate wells and three independent experiments were performed.
Dose-effect analyses, including combination indices, dose reduction indices and median-effect analysis for FIGS. 9A-9C and FIGS. 11A-11C were performed using the method of Chou and Talay (55) via the CalcuSyn software suite (Biosoft, Cambridge UK), version 2.1.

[7] = system: human A375 melanoma cells; assay: Resazurin-based assay for cell viability
[8] = system: A375 cells; assay: TUNEL assay; format: cell-based, human
Description: TUNEL. Glass coverslips were coated with poly-L-lysine in a 24-well dish, rinsed with PBS, and dried. Cells were seeded at a density to achieve 90-100% at harvest. 24 hours after seeding, cells were treated with the indicated conditions and incubated for 24 hours. TUNEL staining was performed according to vendor's protocol (cat#12 156 792 910) (Roche Indianapolis, Ind.). Briefly, media was gently aspirated and cells were fixed in 4% paraformaldehyde for 1 hour at room temperature. Cells were gently rinsed twice with PBS and permeabilized with 0.1% Triton X-100 in 0.1% sodium citrate for 2 minutes on ice. Cells were rinsed twice with PBS, and 40 uL of TUNEL reaction mixture was added directly on top of the slide and incubated for 1 hour at 37° C. in a humidified incubator. Slips were rinsed 3 times and mounted on superfrost plus glass slides (cat#48311-703 VWR West Chester, Pa.) with Prolong Gold anti-fade mounting media containing DAPI (cat# P36931 Invitrogen; Grand Island, N.Y.). Images were obtained on a Nikon TiE inverted widefield high-resolution microscope (Nikon Melville, N.Y.).

[9] = system: AXIN1; assay: qRT-PCR of AXIN1 mRNA in A375 cells; format: cell-based, human; conditions: A375, 2 μM PLX4720, 24 hours
From the text: as §1

[10] = system: β-catenin; assay: Cytosolic and nuclear β-catenin fractionation; format: cell-based, human; conditions: A375, 24 hours
Description: Cytosolic and Nuclear β-catenin Fractionation. Cells were plated in 100 mm dishes. 24 hours following plating, cells were treated with the indicated conditions for 24 hours. Cells were gently rinsed with PBS and harvested by scraping in 500 uL of hypotonic lysis buffer (50 mM HEPES pH 8.0, 1 mM EDTA, 1 mM DTT) containing protease and phosphatase inhibitors. Cells were swelled on ice for 30 minutes and then passed through a 27 gauge needle ten times and checked for complete lysis with a microscope. Lysates were centrifuged at 10,000×g for 20 minutes and supernatant was collected as the cytosolic fraction. Pelleted membranes were washed 5 times with hypotonic lysis buffer and then solubilized with solubilization buffer (50 mM Tris pH 8.0, 150 mM NaCl, 0.1% SDS, 0.5% sodium deoxycholate, 1% Triton X-100) containing protease and phosphatase inhibitors. After a 30 minute incubation on ice, lysates were centrifuged at 16,000×g for 20 minutes. The protein concentration of the cleared supernatant was determined by BCA analysis and an equal amount of protein and volume was then incubated with pre-washed Con A sepharose beads overnight at 4 degree C. Supernatant was collected as the nuclear fraction.

[11] = system: Wnt/β-catenin signaling; assay: β-catenin activated reporter (BAR) luciferase assay in A375 melanoma cells
From the text: By way of non-limiting example, Wnt/β-catenin signaling can be measured using the BAR reporter described in detail elsewhere herein. Briefly, the BAR (β-catenin activated reporter) is a lentiviral plasmid which provides for expression of luciferase in response to Wnt/β-catenin signaling. Output can be measured with an automated luminescence plate reader.
Detailed information on the β-catenin activated reporter (BAR) has been previously described (23). Briefly, the β-catenin activated reporter (pBAR) is a lentiviral plasmid that contains 12 TCF/LEF binding sites (5′-[sequence]-3′) each separated by distinct 5 base-pair linkers upstream of a minimal promoter and the firefly luciferase open reading frame. The reporter also contains a separate PGK promoter that constitutively drives the expression of a puromycin resistance gene for mammalian cell selection. […] PLX4720 was purchased from Symansis (Australia cat# SY-PLX4720). CHIR99021 was purchased from Axon MedChem (Gronigen, Netherlands catalog #Axon1386). Z-VAD-FMK was purchased from R&D systems (Minneapolis, Minn. cat# FMKSP01).
Low throughput BAR reporter assays. Cells were plated in 96-well plates.

**Q.** How did the “activating auto-phosphorylation of GSK3B” value [1] turn out when `CCCS(=O)(=O)Nc1ccc(F)c(C(=O)c2c[nH]c3ncc(Cl)cc23)c1F` [PLX4720, N-[3-[(5-Chloro-1H-pyrrolo[2,3-b]pyridin-3-yl)carbonyl]-2,4-difluorophenyl]-1-propanesulfonamide] was run?
**A.** lost

**Q.** What about the “SYNERGISTIC WNT ACTIVATION WITH PLX4720?” value [2] of the same compound?
**A.** YES

**Q.** And the “SYNERGISTIC APOPTOSIS WITH WNT AND PLX4720?” value [3]?
**A.** YES

**Q.** What about the “cleaved caspase-3-positive cells” value ([4]; AXIN1/2 siRNA, L CM) of the same compound?
**A.** 12.67 ± 0.89

**Q.** And the “cleaved caspase-3-positive cells” value ([4]; AXIN1/2 siRNA, W3A CM)?
**A.** 15.07 ± 1.6

**Q.** And the “cleaved caspase-3-positive cells” value ([4]; Control siRNA, L CM)?
**A.** 3.39 ± 0.17

**Q.** And the “cleaved caspase-3-positive cells” value ([4]; Control siRNA, W3A CM)?
**A.** 4.45 ± 0.41

**Q.** And the “cleaved caspase-3-positive cells” value ([5]; AXIN1/2 siRNA, L CM)?
**A.** 11.88 ± 0.18

**Q.** What about the “cleaved caspase-3-positive cells” value ([5]; AXIN1/2 siRNA, W3A CM) of the same compound?
**A.** 13.13 ± 2.7

**Q.** And the “cleaved caspase-3-positive cells” value ([5]; Control siRNA, L CM)?
**A.** 3.39 ± 0.22

**Q.** And the “cleaved caspase-3-positive cells” value ([5]; Control siRNA, W3A CM)?
**A.** 4.28 ± 1.2

**Q.** What about the drug reduction indices ([6]; combination of WNT3A CM and PLX4720, at 50% growth inhibition) of the same compound?
**A.** 8.1

**Q.** What about the “combination indices (inhibition of cell growth)” value ([6]; combination of WNT3A and PLX4720, 48 hours) of the same compound?
**A.** less than 1

**Q.** What about the “cell viability / proliferation (resazurin)” value [7] of the same compound?
**A.** further decreases cell viability

**Q.** And the TUNEL staining ([8]; A375, agents individually)?
**A.** minimal TUNEL-positivity

**Q.** And the TUNEL staining ([8]; WNT3A and 2 μM PLX4720, 24 hours)?
**A.** presence of apoptotic cell death

**Q.** And the “AXIN1 gene expression (mRNA)” value [9]?
**A.** no transcriptional regulation of AXIN1 gene expression

**Q.** What about the “steady-state levels of cytosolic or nuclear β-catenin” value [10] of the same compound?
**A.** did not result in increased steady-state levels of cytosolic or nuclear β-catenin

**Q.** What about the “activation of BAR” value ([11]; A375, PLX4720 on its own) of the same compound?
**A.** does not lead to any measurable activation of BAR on its own

**Q.** What about the “Wnt/β-catenin signaling (BAR activity)” value ([11]; A375, in the presence of WNT3A) of the same compound?
**A.** enhanced Wnt/β-catenin signaling in a dose-dependent manner

**Q.** What about the “Combination indices (BAR activity)” value ([11]; WNT3A and PLX4720, fixed ratio doses, particularly at higher levels of BAR activity) of the same compound?
**A.** less than 1
